From ChEMBL document CHEMBL3351349, “Histone deacetylase inhibitors derived from 1,2,3,4-tetrahydropyrrolo[1,2-a]pyrazine and related heterocycles selective for the HDAC6 isoform” (Bioorg Med Chem Lett, 2014)

Experiments:
HeLa = assay: Selectivity index, ratio of IC50 for HDAC1/HDAC2 in human HeLa cells nuclear extracts to IC50 for recombinant N-GST-tagged HDAC6 (unknown origin); type: cell-based
[1] = biological target: T1, Protein deacetylase HDAC6 (Homo sapiens, UniProt Q9UBN7); assay: Inhibition of recombinant N-GST-tagged HDAC6 (unknown origin) assessed as reduction in deacetylation of Ac-Arg-Gly-Lys(Ac)-AMC substrate by fluorescence assay
T1 sequence (Q9UBN7 whole entry): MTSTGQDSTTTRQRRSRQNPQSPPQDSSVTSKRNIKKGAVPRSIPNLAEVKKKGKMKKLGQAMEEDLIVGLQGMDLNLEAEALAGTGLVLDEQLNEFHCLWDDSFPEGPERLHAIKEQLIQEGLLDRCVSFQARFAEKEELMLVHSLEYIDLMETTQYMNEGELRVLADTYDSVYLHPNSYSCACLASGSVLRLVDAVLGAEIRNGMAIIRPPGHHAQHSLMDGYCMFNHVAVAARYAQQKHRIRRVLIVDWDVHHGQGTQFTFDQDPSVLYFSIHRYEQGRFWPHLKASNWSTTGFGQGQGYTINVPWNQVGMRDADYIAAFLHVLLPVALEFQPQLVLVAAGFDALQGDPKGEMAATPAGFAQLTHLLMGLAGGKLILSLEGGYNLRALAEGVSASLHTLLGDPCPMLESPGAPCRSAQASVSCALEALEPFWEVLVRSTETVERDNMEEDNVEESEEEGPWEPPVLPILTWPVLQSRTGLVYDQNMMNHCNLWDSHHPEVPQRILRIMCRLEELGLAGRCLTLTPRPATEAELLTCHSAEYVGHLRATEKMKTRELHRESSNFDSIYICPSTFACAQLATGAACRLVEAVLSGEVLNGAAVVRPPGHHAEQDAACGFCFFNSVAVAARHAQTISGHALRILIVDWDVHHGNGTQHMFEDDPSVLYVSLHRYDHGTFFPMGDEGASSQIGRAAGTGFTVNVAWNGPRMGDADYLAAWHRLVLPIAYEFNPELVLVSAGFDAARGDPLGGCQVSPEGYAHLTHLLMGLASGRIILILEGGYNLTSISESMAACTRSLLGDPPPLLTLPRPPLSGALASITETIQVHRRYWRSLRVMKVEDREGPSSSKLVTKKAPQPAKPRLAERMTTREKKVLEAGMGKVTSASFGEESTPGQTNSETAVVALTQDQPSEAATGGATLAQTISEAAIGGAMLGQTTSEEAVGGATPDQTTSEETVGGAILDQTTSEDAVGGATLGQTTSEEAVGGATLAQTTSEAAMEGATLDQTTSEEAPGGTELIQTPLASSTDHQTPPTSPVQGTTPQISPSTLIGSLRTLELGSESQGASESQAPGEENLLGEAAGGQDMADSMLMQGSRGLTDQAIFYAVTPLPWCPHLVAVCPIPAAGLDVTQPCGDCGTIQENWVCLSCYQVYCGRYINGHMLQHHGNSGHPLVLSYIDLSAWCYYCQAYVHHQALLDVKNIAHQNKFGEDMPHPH

[2] = biological target: Histone deacetylase (HDAC1 and HDAC2) (Homo sapiens) (UniProt Q13547+Q92769); assay: Inhibition of HDAC1/HDAC2 in human HeLa cells assessed as reduction in acetylated histone levels at 20 uM incubated for 24 hrs by immunofluorescence assay; type: cell-based
Histone deacetylase 3 = Histone deacetylase 3 (Homo sapiens, UniProt O15379); assay: Inhibition of full length C-terminal 6x-His tagged human HDAC3 using Arg-His-Lys-Lys(Ac) substrate incubated for 2 hrs by fluorescence assay
Histone deacetylase 4 = Histone deacetylase 4 (Homo sapiens, UniProt P56524)
Histone deacetylase 2 = Histone deacetylase 2 (Homo sapiens, UniProt Q92769)
Histone deacetylase 8 = biological target: T2, Histone deacetylase 8 (Homo sapiens, UniProt Q9BY41); assay: Inhibition of full length C-terminal 6x-His tagged human HDAC8 using Arg-His-Lys(Ac)-Lys(Ac) substrate incubated for 2 hrs by fluorescence assay
T2 sequence (Q9BY41 whole entry): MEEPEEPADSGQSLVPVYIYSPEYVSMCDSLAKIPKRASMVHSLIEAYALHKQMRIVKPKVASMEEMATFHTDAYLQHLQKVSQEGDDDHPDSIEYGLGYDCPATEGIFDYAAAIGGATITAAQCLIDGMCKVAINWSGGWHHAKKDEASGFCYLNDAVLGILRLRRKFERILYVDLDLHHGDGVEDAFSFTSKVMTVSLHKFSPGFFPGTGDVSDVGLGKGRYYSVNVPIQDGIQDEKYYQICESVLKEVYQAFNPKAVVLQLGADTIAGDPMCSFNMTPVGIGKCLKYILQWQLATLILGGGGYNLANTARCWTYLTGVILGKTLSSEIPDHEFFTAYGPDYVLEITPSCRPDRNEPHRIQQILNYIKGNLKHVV

Histone deacetylase 5 = Histone deacetylase 5 (Homo sapiens, UniProt Q9UQL6)
Histone deacetylase 11 = biological target: T3, Histone deacetylase 11 (Homo sapiens, UniProt Q96DB2); assay: Inhibition of full length N-terminal GST-tagged human HDAC11 using Arg-His-Lys-Lys(Ac) substrate incubated for 2 hrs by fluorescence assay
T3 sequence (Q96DB2 whole entry): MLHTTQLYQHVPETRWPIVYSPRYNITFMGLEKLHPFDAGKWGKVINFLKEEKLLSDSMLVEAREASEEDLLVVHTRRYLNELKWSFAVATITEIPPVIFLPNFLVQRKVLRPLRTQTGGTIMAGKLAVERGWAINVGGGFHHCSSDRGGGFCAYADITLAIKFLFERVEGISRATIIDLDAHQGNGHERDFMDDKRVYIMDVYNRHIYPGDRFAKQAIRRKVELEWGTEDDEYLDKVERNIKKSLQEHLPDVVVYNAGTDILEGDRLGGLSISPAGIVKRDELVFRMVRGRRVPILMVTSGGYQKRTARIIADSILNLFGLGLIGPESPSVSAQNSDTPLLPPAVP

[3] = biological target: T1, Protein deacetylase HDAC6; assay: Inhibition of HDAC6 in human HeLa cells assessed as reduction in K40 hyperacetylation of alpha-tubulin incubated for 6 hrs by immunofluorescence assay; type: cell-based
Histone deacetylase 1 = Histone deacetylase 1 (Homo sapiens, UniProt Q13547); assay: Inhibition of full length GST-tagged human HDAC1 using Arg-His-Lys-Lys(Ac) substrate incubated for 2 hrs by fluorescence assay
[4] = Aqueous solubility in pH 6.8 buffer solution; type: physicochemical
[5] = Permeability in human Caco2 cells at pH 7.4; type: ADME, cell-based; conditions: Caco-2, pH 7.4, read-out: permeability
[6] = biological target: T4, Polyamine deacetylase HDAC10 (Homo sapiens, UniProt Q969S8); assay: Inhibition of N-terminal GST-tagged human HDAC10 (1 to 481 residues) using Arg-His-Lys-Lys(Ac) substrate incubated for 2 hrs by fluorescence assay
T4 sequence (Q969S8 whole entry): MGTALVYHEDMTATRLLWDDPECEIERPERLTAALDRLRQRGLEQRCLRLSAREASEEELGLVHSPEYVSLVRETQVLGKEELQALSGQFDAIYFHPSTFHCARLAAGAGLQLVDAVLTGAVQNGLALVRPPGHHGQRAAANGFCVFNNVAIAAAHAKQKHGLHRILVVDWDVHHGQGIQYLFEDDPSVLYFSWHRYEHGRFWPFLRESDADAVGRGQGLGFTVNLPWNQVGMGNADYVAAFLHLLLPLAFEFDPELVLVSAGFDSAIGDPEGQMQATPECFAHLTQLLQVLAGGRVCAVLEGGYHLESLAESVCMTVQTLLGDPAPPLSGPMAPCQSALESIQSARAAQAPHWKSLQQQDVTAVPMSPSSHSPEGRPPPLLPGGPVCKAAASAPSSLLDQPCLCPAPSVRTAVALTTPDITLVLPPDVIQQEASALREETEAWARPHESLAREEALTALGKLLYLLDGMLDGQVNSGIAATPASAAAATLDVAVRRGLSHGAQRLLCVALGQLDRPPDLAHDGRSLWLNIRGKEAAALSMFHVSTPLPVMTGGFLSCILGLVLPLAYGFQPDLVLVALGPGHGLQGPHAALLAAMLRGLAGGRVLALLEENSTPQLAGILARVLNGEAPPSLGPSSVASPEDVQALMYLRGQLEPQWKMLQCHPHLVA

Histone deacetylase (HDAC1 and HDAC2) (Homo sapiens), sequence (Q13547 whole entry, looked up): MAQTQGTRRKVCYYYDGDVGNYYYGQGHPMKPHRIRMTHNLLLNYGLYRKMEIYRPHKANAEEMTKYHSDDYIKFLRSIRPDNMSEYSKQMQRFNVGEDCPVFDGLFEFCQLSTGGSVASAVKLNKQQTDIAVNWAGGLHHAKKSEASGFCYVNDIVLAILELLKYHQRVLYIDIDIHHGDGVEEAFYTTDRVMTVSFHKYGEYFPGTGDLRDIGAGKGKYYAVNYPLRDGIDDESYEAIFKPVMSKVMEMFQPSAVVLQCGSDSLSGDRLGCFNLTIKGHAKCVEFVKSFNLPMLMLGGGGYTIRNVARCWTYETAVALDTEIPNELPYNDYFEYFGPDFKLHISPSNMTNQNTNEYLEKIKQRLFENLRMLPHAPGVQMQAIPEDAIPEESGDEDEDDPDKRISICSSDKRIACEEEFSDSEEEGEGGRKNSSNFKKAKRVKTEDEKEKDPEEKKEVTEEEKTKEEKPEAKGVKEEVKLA
Histone deacetylase (HDAC1 and HDAC2) (Homo sapiens), sequence (Q92769 whole entry, looked up): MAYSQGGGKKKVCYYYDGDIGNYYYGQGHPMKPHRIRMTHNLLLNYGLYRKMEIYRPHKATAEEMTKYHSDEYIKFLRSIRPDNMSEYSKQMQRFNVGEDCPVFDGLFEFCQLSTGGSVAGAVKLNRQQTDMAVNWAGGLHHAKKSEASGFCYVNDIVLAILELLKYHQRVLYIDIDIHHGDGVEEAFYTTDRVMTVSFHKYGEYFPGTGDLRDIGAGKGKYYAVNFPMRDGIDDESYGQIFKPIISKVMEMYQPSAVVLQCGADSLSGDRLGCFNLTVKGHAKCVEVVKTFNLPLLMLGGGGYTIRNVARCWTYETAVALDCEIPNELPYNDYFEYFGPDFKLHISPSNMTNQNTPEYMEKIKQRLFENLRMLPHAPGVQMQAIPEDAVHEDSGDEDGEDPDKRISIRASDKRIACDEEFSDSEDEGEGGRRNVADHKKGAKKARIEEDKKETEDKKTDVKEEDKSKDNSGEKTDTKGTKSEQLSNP
Histone deacetylase 4, sequence (P56524 whole entry): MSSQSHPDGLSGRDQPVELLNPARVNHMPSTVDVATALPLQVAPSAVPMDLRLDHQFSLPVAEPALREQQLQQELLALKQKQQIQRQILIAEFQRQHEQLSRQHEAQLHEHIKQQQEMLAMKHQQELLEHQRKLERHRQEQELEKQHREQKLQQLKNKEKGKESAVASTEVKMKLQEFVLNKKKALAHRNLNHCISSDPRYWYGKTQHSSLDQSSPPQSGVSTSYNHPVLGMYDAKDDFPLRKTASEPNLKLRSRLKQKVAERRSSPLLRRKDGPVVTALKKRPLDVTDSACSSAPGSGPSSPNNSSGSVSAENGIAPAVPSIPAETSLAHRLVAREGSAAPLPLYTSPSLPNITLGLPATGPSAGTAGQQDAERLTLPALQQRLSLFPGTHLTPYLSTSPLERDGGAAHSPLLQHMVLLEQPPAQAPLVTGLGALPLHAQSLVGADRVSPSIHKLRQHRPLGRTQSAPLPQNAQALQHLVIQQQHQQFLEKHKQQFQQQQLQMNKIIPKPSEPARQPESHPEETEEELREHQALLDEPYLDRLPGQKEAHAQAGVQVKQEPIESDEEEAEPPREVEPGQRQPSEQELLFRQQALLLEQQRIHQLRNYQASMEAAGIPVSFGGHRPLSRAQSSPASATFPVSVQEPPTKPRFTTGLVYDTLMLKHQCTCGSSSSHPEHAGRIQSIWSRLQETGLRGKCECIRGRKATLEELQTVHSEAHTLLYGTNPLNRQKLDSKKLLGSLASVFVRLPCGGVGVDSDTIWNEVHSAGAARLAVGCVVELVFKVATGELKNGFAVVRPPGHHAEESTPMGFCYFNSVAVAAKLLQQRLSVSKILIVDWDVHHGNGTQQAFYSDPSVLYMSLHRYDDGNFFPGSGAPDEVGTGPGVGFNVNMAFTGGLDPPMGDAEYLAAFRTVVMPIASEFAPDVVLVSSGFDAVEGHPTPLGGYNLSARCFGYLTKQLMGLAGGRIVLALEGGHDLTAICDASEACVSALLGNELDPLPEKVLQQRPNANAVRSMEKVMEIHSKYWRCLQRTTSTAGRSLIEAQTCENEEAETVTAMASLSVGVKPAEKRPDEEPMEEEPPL
Histone deacetylase 3, sequence (O15379 whole entry): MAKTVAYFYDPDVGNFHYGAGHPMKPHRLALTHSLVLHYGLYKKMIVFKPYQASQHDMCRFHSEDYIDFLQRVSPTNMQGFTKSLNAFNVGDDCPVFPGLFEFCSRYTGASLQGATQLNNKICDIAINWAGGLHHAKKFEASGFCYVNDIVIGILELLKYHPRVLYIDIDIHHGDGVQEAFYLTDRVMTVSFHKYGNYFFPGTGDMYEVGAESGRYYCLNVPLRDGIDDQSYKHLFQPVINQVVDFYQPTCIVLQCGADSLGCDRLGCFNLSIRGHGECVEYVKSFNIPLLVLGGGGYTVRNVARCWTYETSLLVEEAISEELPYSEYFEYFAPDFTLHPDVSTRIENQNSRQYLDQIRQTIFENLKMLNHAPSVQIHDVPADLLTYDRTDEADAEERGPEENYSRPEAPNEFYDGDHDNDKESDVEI
Histone deacetylase 1, sequence (Q13547 whole entry): as the sequence (Q13547 whole entry, looked up) above
Histone deacetylase 5, sequence (Q9UQL6 whole entry): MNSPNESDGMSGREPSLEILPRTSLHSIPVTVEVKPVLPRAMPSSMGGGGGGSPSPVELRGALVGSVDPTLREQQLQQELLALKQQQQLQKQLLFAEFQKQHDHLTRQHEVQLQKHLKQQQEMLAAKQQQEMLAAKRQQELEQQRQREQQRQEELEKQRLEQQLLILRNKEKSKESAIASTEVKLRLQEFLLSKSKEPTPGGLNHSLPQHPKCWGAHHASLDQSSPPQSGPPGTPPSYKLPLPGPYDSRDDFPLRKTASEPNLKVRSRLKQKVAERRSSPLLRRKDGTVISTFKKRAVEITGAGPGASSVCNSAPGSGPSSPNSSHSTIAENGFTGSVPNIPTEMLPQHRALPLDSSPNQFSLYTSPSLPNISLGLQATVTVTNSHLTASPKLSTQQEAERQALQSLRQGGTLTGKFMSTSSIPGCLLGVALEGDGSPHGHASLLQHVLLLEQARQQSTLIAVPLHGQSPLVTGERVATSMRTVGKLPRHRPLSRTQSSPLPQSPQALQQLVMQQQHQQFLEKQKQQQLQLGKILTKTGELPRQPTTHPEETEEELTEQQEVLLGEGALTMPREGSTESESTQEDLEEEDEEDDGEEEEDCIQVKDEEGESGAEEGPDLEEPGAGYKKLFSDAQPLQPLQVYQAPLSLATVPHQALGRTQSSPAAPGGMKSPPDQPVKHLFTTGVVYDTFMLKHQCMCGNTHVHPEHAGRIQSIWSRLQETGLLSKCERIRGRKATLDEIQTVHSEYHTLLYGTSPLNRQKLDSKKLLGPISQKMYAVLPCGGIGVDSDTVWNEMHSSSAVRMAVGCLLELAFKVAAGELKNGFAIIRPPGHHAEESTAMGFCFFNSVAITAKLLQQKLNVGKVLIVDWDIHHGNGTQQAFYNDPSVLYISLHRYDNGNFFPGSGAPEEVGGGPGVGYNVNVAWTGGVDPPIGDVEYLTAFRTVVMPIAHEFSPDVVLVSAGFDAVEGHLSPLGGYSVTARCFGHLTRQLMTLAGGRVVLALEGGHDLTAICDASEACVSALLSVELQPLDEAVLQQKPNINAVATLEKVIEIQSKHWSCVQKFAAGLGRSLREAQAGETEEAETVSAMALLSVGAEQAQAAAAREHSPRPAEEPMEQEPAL
Histone deacetylase 2, sequence (Q92769 whole entry): as the sequence (Q92769 whole entry, looked up) above

Row | IC50 [1] | inhibition [2] | IC50 [3] | SMILES | Ratio IC50 (HeLa) | also measured
1 | 64 nM | < 20% |  | O=C(NO)c1cn2c(n1)CN(C(=O)c1cc3ccccc3s1)CC2 | 52 | 
2 | 130 nM | < 20% |  | Cn1cccc1C(=O)N1CCn2cc(C(=O)NO)nc2C1 | 770 | 
3 | 32 nM | < 20% |  | O=C(NO)c1cc2n(c1)CCN(C(=O)c1ccc(-c3ccccc3)cc1)C2 | 44 | 
4 | 810 nM | < 20% |  | COc1ccc(C(=O)N2CCn3nc(C(=O)NO)cc3C2)cc1 | 120 | 
5 | 33 nM | < 20% | 69 nM | Cn1cccc1C(=O)N1CCn2cc(C(=O)NO)cc2C1 |  | IC50 (Histone deacetylase 3): 8500 nM; IC50 (Histone deacetylase 4): > 50000 nM; IC50 (Histone deacetylase 2): 39000 nM; IC50 (Histone deacetylase 8): 3300 nM; IC50 (Histone deacetylase 5): 29000 nM; IC50 (Histone deacetylase 11): 29000 nM; IC50 (Histone deacetylase 1): 15000 nM; solubility [4]: > 200 µM; Papp [5]: 4.2 ×10⁻⁶ cm/s; IC50 [6]: 41000 nM
6 | 100 nM | < 20% | 730 nM | O=C(NO)c1cc2n(c1)CCN(C(=O)C1CCCCC1)C2 | 250 | 
7 | 280 nM | < 20% |  | O=C(NO)c1cc2n(c1)CCN(C(=O)c1cc3ccccc3[nH]1)C2 | 24 | 
8 | 350 nM | < 20% | 2200 nM | Cn1cccc1C(=O)N1CCn2nc(C(=O)NO)cc2C1 | 220 | 
9 | 43 nM | < 20% | 100 nM | COc1ccc(C(=O)N2CCn3cc(C(=O)NO)cc3C2)cc1 | 130 | 
10 | 76 nM | < 20% | 3500 nM | Cn1c(C(=O)N2CCn3nc(C(=O)NO)cc3C2)cc2ccccc21 | 66 | 
11 | 110 nM | < 20% |  | O=C(NO)c1cc2n(c1)CCN(C(=O)c1cccs1)C2 | 150 | 
12 | 190 nM | < 20% |  | Cn1cc(C(=O)N2CCn3cc(C(=O)NO)cc3C2)c2ccccc21 | 6.3 | 
13 | 33 nM | < 20% | 150 nM | Cn1c(C(=O)N2CCn3cc(C(=O)NO)cc3C2)cc(Cl)c1Cl | 100 | 
14 | 85 nM | < 20% | 140 nM | Cn1ccc2cc(C(=O)N3CCn4cc(C(=O)NO)cc4C3)ccc21 | 35 | 
15 |  | < 20% |  | Cn1cccc1C(=O)N1CCc2cc(C(=O)NO)ccc2C1 | 500 | 
16 | 39 nM | < 20% |  | O=C(NO)c1cc2n(c1)CCN(C(=O)c1cc3ccccc3s1)C2 | 14 | 
17 |  | < 20% |  | Cn1cccc1C(=O)NCc1ccc(C(=O)NO)cc1 | 115 | 
18 | 87 nM | < 20% | 2100 nM | O=C(NO)c1cn2c(n1)CN(C(=O)c1ccc(-c3ccccc3)cc1)CC2 | 70 | 
